“Also recorded” adds a separate entry of the source.
Tests used:
[1] = target: T1, hMAO-B (Homo sapiens, UniProt P27338); experiment: MAO assay (inhibition of hMAO-B); assay type: biochemical; conditions: read-out: IC50 hMAO-B (No inhibition up to 10 μM)
T1 sequence (P27338 2-520 limits assumed): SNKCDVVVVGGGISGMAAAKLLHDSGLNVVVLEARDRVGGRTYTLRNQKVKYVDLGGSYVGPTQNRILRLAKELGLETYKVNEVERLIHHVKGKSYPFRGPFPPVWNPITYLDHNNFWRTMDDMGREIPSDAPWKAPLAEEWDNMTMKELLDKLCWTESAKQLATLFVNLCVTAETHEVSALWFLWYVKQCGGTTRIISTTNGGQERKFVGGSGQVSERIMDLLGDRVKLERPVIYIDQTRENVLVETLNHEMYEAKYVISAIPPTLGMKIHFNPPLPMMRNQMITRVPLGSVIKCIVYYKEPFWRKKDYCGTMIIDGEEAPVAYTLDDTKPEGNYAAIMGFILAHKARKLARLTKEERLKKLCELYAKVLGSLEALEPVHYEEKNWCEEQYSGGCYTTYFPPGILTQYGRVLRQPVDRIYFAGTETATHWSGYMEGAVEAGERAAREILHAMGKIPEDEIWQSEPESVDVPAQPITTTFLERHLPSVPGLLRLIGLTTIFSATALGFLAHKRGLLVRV

[2] = target: T2, hMAO-A (UniProt P21397); experiment: MAO assay (inhibition of hMAO-A); assay type: biochemical, human; conditions: read-out: IC50 hMAO-A (No inhibition up to 10 μM)
T2 sequence (P21397 1-527): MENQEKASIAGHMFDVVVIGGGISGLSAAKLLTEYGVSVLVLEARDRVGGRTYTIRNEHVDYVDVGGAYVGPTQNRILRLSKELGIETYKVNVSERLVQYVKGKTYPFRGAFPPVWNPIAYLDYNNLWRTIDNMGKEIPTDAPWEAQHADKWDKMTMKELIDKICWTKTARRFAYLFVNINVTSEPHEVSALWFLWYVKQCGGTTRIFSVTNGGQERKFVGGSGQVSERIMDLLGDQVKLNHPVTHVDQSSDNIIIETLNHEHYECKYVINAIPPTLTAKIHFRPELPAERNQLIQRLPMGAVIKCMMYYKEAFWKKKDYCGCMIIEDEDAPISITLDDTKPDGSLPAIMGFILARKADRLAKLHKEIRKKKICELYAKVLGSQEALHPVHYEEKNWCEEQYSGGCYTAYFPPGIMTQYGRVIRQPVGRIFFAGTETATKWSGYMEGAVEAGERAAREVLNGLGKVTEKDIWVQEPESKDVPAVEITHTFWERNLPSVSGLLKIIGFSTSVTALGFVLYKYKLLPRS

[3] = target: T3, hALDH2 (UniProt P05091); experiment: ALDH-2 assay (inhibition of hALDH2); assay type: biochemical, human
T3 sequence (P05091 1-517): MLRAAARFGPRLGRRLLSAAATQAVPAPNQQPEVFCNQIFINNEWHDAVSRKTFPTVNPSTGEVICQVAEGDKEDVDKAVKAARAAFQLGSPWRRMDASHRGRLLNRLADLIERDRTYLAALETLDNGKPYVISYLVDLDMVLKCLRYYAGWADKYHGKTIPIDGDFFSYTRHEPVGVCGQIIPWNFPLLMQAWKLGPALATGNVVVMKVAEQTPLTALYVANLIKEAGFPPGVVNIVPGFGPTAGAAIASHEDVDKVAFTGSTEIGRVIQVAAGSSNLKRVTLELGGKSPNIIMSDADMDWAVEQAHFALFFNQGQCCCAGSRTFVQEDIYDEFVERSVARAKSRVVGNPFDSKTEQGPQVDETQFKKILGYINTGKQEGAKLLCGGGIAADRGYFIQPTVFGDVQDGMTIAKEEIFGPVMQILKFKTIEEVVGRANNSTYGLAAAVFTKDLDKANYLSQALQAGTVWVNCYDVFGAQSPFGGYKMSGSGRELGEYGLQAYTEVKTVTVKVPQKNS

[4] = system: Syrian golden hamsters; conditions: background statement, Keung and Vallee; U.S. Pat. Nos. 5,624,910 and 6,121,010; cited from earlier work
[5] = target: T4, human mitochondrial aldehyde dehydrogenase (ALDH-2) (Homo sapiens, UniProt P05091); conditions: background statement, U.S. Pat. Nos. 5,624,910 and 6,121,010; cited from earlier work
T4 sequence (P05091 18-517): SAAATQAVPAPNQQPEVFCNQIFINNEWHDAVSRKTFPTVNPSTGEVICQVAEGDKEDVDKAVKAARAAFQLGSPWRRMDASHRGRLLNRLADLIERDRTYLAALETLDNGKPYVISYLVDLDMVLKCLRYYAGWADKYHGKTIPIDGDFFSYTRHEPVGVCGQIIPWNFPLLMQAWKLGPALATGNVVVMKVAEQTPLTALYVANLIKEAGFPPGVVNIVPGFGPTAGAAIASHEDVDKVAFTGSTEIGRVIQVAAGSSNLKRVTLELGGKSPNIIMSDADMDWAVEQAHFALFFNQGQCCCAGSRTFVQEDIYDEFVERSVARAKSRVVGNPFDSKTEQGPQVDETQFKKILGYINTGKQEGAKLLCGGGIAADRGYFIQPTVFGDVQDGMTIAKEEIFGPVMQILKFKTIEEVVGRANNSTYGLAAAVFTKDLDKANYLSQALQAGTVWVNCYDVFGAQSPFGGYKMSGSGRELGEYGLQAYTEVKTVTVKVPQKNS

SMILES | IC50 [1] [µM] | IC50 [2] [µM] | hALDH2 % inhibition ([3]; at 1 μM) [% inhibition at 1 μM] | IC50 [3] [µM] | suppression of ethanol intake [4] | inhibition of human mitochondrial ALDH-2 [5]
O=c1c(-c2ccc(O)cc2)coc2cc(O)ccc12 [daidzein] | – | – | – | – | effective in suppressing ethanol intake; also recorded: effective in suppressing ethanol uptake | –
O=c1c2ccc(OCc3noc(-c4cc(C(F)(F)F)cc(C(F)(F)F)c4)n3)cc2ncn1-c1ccc(O)cc1 [7-({5-[3,5-bis(trifluoromethyl)phenyl](1,2,4-oxadiazol-3-yl)}methoxy)-3-(4-hydroxyphenyl)-3-hydroquinazolin-4-one] | > 10 | > 10 | – | 0.07 | – | –
O=c1c2ccc(OCc3noc(-c4cccc(C(F)(F)F)c4)n3)cc2ncn1-c1ccc(O)cc1 [3-(4-hydroxyphenyl)-7-({5-[3-(trifluoromethyl)phenyl](1,2,4-oxadiazol-3-yl)}methoxy)-3-hydroquinazolin-4-one] | > 10 | > 10 | – | 0.03 | – | –
O=c1c(-c2ccc(O)cc2)coc2cc(O[C@@H]3O[C@H](CO)[C@@H](O)[C@H](O)[C@H]3O)ccc12 [Daidzin, daidzin] | – | – | – | – | – | potent and selective inhibitors
O=c1c2ccc(OCc3noc(-c4cc(F)cc(C(F)(F)F)c4)n3)cc2ncn1-c1ccc(O)cc1 [7-({5-[5-fluoro-3-(trifluoromethyl)phenyl](1,2,4-oxadiazol-3-yl)}methoxy)-3-(4-hydroxyphenyl)-3-hydroquinazolin-4-one] | > 10 | > 10 | – | 0.07 | – | –
CC(C)OC(=O)c1cccc(COc2ccc3c(=O)n(-c4ccc(O)cc4)cnc3c2)c1 [methylethyl 3-{[3-(4-hydroxyphenyl)-4-oxo-3-hydroquinazolin-7-yloxy]methyl} benzoate] | > 10 | > 10 | – | 0.095 | – | –
COc1ccccc1-c1nc(COc2ccc3c(=O)n(-c4ccc(O)cc4)cnc3c2)no1 [7-({5-[2-methoxyphenyl](1,2,4-oxadiazol-3-yl)}methoxy)-3-(4-hydroxyphenyl)-3-hydroquinazolin-4-one] | > 10 | > 10 | – | 0.09 | – | –
NC(=O)c1cccc(COc2ccc3c(=O)n(-c4ccc(O)cc4)cnc3c2)c1 [3-{[3-(4-hydroxyphenyl)-4-oxo-3-hydroquinazolin-7-yloxy]methyl}benzamide] | > 10 | > 10 | – | 0.021 | – | –
O=c1c2ccc(OCc3noc(-c4ccccc4)n3)cc2ncn1-c1ccc(O)cc1 [3-(4-hydroxyphenyl)-7-[(5-phenyl(1,2,4-oxadiazol-3-yl))methoxy]-3-hydroquinazolin-4-one] | > 10 | > 10 | – | 0.107 | – | –
N#Cc1cccc(COc2ccc3c(=O)n(-c4ccc(O)cc4)cnc3c2)c1 [3-{[3-(4-hydroxyphenyl)-4-oxo-3-hydroquinazolin-7-yloxy]methyl} benzenecarbonitrile] | > 10 | > 10 | – | 0.196 | – | –

Continued, in another order:

IC50 [1] [µM] | IC50 [2] [µM] | hALDH2 % inhibition ([3]; at 1 μM) [% inhibition at 1 μM] | IC50 [3] [µM] | SMILES | suppression of ethanol intake [4] | inhibition of human mitochondrial ALDH-2 [5]
> 10 | > 10 | 25 | – | N#Cc1cccc(-c2nc(COc3ccc4c(=O)n(-c5ccc(O)cc5)cnc4c3)no2)c1 [3-(3-{[3-(4-hydroxyphenyl)-4-oxo-3-hydroquinazolin-7-yloxy]methyl}-1,2,4-oxadiazol-5-yl)benzenecarbonitrile] | – | –
> 10 | > 10 | – | 0.1 | COc1ccc(-c2nc(COc3ccc4c(=O)n(-c5ccc(O)cc5)cnc4c3)no2)cc1C(F)(F)F [3-(4-hydroxyphenyl)-7-({5-[4-methoxy-3-(trifluoromethyl)phenyl](1,2,4-oxadiazol-3-yl)}methoxy)-3-hydroquinazolin-4-one] | – | –
> 10 | > 10 | – | 0.136 | O=C(O)c1cccc(COc2ccc3c(=O)n(-c4ccc(O)cc4)cnc3c2)c1 [Example 3A, 3-{[3-(4-hydroxyphenyl)-4-oxo-3-hydroquinazolin-7-yloxy]methyl}benzoic acid] | – | –
> 10 | > 10 | – | 0.312 | O=c1c2ccc(OCc3noc(-c4cc(C(F)(F)F)ccc4C(F)(F)F)n3)cc2ncn1-c1ccc(O)cc1 [7-({5-[2,5-bis(trifluoromethyl)phenyl](1,2,4-oxadiazol-3-yl)}methoxy)-3-(4-hydroxyphenyl)-3-hydroquinazolin-4-one] | – | –
> 10 | > 10 | – | 0.196 | C=CCOC(=O)c1cccc(COc2ccc3c(=O)n(-c4ccc(O)cc4)cnc3c2)c1 [Example 2A, prop-2-enyl 3-{[3-(4-hydroxyphenyl)-4-oxo-3-hydroquinazolin-7-yloxy]methyl} benzoate] | – | –

Reference: patent US7951813B2, “Quinazolinone derivatives as ALDH-2 inhibitors” (Gilead Sciences, Inc., priority 2007, dated 2011)
